Assay: xn = mol fraction of the nth substance listed
Details: 100 kPa, Liquid; for viscosity: Falling or rolling sphere viscometry; for mass density: Vibrating tube method

CCCC[N+]1(C)CCCCC1.[Br-] [N-butyl-N-methylpiperidinium bromide] + O
Details | mass density [kg/m3] | viscosity [mPa·s]
298.15 K, x1 = 0.03 | 1057.7 | 1.991
298.15 K, x1 = 0.06 | 1097.6 | 3.692
298.15 K, x1 = 0.089 | 1126.3 | 6.598
298.15 K, x1 = 0.124 | 1150.5 | 12.67
298.15 K, x1 = 0.159 | 1167.6 | 21.36
298.15 K, x1 = 0.195 | 1180.6 | 35.21
298.15 K, x1 = 0.244 | 1193.3 | 69.27
303.15 K, x1 = 0.03 | 1054.4 | 1.735
303.15 K, x1 = 0.06 | 1094.6 | 3.121
303.15 K, x1 = 0.089 | 1122.9 | 5.435
303.15 K, x1 = 0.124 | 1146.9 | 10.39
303.15 K, x1 = 0.159 | 1164 | 16.98
303.15 K, x1 = 0.195 | 1176.9 | 27.19
303.15 K, x1 = 0.244 | 1189.7 | 51.06
303.15 K, x1 = 0.271 | 1195.4 | 72.65
308.15 K, x1 = 0.03 | 1051.9 | 1.529
308.15 K, x1 = 0.06 | 1091.5 | 2.676
308.15 K, x1 = 0.089 | 1119.4 | 4.553
308.15 K, x1 = 0.124 | 1143.2 | 8.531
308.15 K, x1 = 0.159 | 1160.3 | 13.62
308.15 K, x1 = 0.195 | 1173.3 | 21.32
308.15 K, x1 = 0.244 | 1186.2 | 38.65
308.15 K, x1 = 0.271 | 1191.8 | 53.78
313.15 K, x1 = 0.03 | 1049.3 | 1.359
313.15 K, x1 = 0.06 | 1088.3 | 2.321
313.15 K, x1 = 0.089 | 1116 | 3.88
313.15 K, x1 = 0.124 | 1139.6 | 7.053
313.15 K, x1 = 0.159 | 1156.7 | 11.02
313.15 K, x1 = 0.195 | 1169.7 | 16.99
313.15 K, x1 = 0.244 | 1182.6 | 29.62
313.15 K, x1 = 0.271 | 1188.3 | 40.63
318.15 K, x1 = 0.03 | 1045.6 | 1.215
318.15 K, x1 = 0.06 | 1085.1 | 2.033
318.15 K, x1 = 0.089 | 1112.4 | 3.326
318.15 K, x1 = 0.124 | 1135.9 | 5.797
318.15 K, x1 = 0.159 | 1153 | 9.05
318.15 K, x1 = 0.195 | 1166 | 13.74
318.15 K, x1 = 0.244 | 1179 | 23.16
318.15 K, x1 = 0.271 | 1184.7 | 31.55
323.15 K, x1 = 0.03 | 1042.7 | 1.097
323.15 K, x1 = 0.06 | 1081.8 | 1.798
323.15 K, x1 = 0.089 | 1108.8 | 2.89
323.15 K, x1 = 0.124 | 1132.2 | 4.929
323.15 K, x1 = 0.159 | 1149.3 | 7.56
323.15 K, x1 = 0.195 | 1162.4 | 11.33
323.15 K, x1 = 0.244 | 1175.4 | 18.71
323.15 K, x1 = 0.271 | 1181.2 | 24.85
328.15 K, x1 = 0.03 | 1040 | 0.997
328.15 K, x1 = 0.06 | 1078.4 | 1.603
328.15 K, x1 = 0.089 | 1105.2 | 2.54
328.15 K, x1 = 0.124 | 1128.5 | 4.221
328.15 K, x1 = 0.159 | 1145.5 | 6.369
328.15 K, x1 = 0.195 | 1158.7 | 9.485
328.15 K, x1 = 0.244 | 1171.8 | 15.31
328.15 K, x1 = 0.271 | 1177.6 | 20.06
333.15 K, x1 = 0.03 | 1035.9 | 0.906
333.15 K, x1 = 0.06 | 1075 | 1.441
333.15 K, x1 = 0.089 | 1101.6 | 2.248
333.15 K, x1 = 0.124 | 1124.8 | 3.656
333.15 K, x1 = 0.159 | 1141.8 | 5.446
333.15 K, x1 = 0.195 | 1155 | 8.051
333.15 K, x1 = 0.244 | 1168.2 | 12.77
333.15 K, x1 = 0.271 | 1174 | 16.49
338.15 K, x1 = 0.03 | 1031.9 | 0.828
338.15 K, x1 = 0.06 | 1071.4 | 1.302
338.15 K, x1 = 0.089 | 1097.9 | 2.006
338.15 K, x1 = 0.124 | 1121 | 3.199
338.15 K, x1 = 0.159 | 1138 | 4.666
338.15 K, x1 = 0.195 | 1151.3 | 6.86
338.15 K, x1 = 0.244 | 1164.5 | 10.74
338.15 K, x1 = 0.271 | 1170.4 | 13.75
343.15 K, x1 = 0.03 | 1027.2 | 0.761
343.15 K, x1 = 0.06 | 1067.6 | 1.185
343.15 K, x1 = 0.089 | 1094.1 | 1.806
343.15 K, x1 = 0.124 | 1117.2 | 2.715
343.15 K, x1 = 0.159 | 1134.3 | 4.069
343.15 K, x1 = 0.195 | 1147.6 | 5.932
343.15 K, x1 = 0.244 | 1160.9 | 9.231
343.15 K, x1 = 0.271 | 1166.8 | 11.68
348.15 K, x1 = 0.03 | 1023.3 | 0.7
348.15 K, x1 = 0.06 | 1064.1 | 1.083
348.15 K, x1 = 0.089 | 1090.4 | 1.629
348.15 K, x1 = 0.124 | 1113.4 | 2.428
348.15 K, x1 = 0.159 | 1130.5 | 3.568
348.15 K, x1 = 0.195 | 1143.8 | 5.143
348.15 K, x1 = 0.244 | 1157.2 | 7.953
348.15 K, x1 = 0.271 | 1163.2 | 9.976
